Results: publication PMC11672540 (2024)
One block for each compound: values may come before it.

How the values were obtained:
Experiment in all cases: ITC
[1] = tested on: ML4 (DNA, aptamer, none) TTCAAATCTTGGTACGTTCTGCCTTTTCTTATTTTGCTTTGGGTTACCTAGTCTAGATTTGAA; details: 0.5x PBS (about 68 mM NaCl, 1.4 mM KCl), 5 mM MgCl2
[2] = tested on: 84-nt aptaMETH (DNA, aptamer, none) ACTGGAGCTCAATCAGTACACGACGGTTGCAAGTGGGACTCTGGTAGGCTGGGTTAATTTGGGACAAGCTTCAACCATGGAGTA; details: 200 mM NaCl, 5 mM MgCl2; 20 mM Tris pH 7.4, 23 °C
[3] = tested on: Aptamer-2 (DNA, aptamer, none) AGGAATTCAGATCTCCCTGCAGGTGGTGTTTTTTTTGTGTGCTGTGTTTTTGTGATGCATGCTCGAGGAGCTCAGGATCCCG; details: 10 mM NaCl, 0.5 mM KCl, 0.2 mM MgCl2, 0.1 mM CaCl2; 2 mM Tris-HCl, 23 °C; very weak or no binding
[4] = tested on: MT2-R1 (DNA, aptamer, none) GGGACGACGCTAGGGGATCTTTTGGGGTTTGTATGGGCGTCGTCCC; details: 137 mM NaCl, 2.7 mM KCl, 1 mM MgCl2; 1x PBS, 23 °C
[5] = tested on: ML12 (DNA, aptamer, none) TTCAAATCTGCGGCGACTAATTCTTAGTGGTGGTTGCAATGCGCTGGGATGAGTCTAGATTTGAA; details: 0.5x PBS (about 68 mM NaCl, 1.4 mM KCl), 5 mM MgCl2, 23 °C
[6] = tested on: ML13 (DNA, aptamer, none) TTCAAATCTGAGCAGCCTAGTTACTGACGGGTTTATAGTACTCGCACTGAGTCTAGATTTGAA; details: 0.5x PBS (about 68 mM NaCl, 1.4 mM KCl), 5 mM MgCl2, 23 °C
[7] = tested on: MT2-R2 (DNA, aptamer, none) GGGACGACGAGGGGATCCATCCAATGGGGTTTGTATACGTCGTCCC; details: 137 mM NaCl, 2.7 mM KCl, 1 mM MgCl2; 1x PBS, 23 °C
[8] = tested on: MT2-R3 (DNA, aptamer, none) GGGACGACGGTACCCGCCGGTGCAGGATCTGGGGTGGTGTCGTCCC; details: 137 mM NaCl, 2.7 mM KCl, 1 mM MgCl2; 1x PBS, 23 °C
[9] = tested on: MT2-R4 (DNA, aptamer, none) GGGACGACGGCAATTGCCGGTGCAGGATCTGAATTATCGTCGTCCC; details: 137 mM NaCl, 2.7 mM KCl, 1 mM MgCl2; 1x PBS, 23 °C
[10] = tested on: M4 (DNA, aptamer, none) GGGACGACGCACTATGGCTAGGGTTGGTACGGTCGTGAACCGCGGGGTGTCGTCCC; details: 137 mM NaCl, 2.7 mM KCl, 1 mM MgCl2; 1x PBS, 23 °C
[11] = tested on: M13 (DNA, aptamer, none) GGGACGACGGCACGAGGTTATTCGTTGGTTGCACTGCGCTGGGAGGAAGTCGTCCC; details: 137 mM NaCl, 2.7 mM KCl, 1 mM MgCl2; 1x PBS, 23 °C; lowest KD of trial 3
[12] = tested on: ML3 (DNA, aptamer, none) TTCAAATCTTATGTACGTTCTATCGCATGGATGGGATTTTGGGTTACCTAGTCTAGATTTGAA; details: 0.5x PBS (about 68 mM NaCl, 1.4 mM KCl), 5 mM MgCl2; 0.5x PBS pH 7.4, 0.005% Triton X-100, 23 °C; 9.9 at 2 mM, 34.3 at 1 mM Mg2+
[13] = tested on: ML7 (DNA, aptamer, none) TTCAAATCTGGTGCCCTTTCGCAGTCGGTTGGTAATGAGATCACTTTAGAGTCTAGATTTGAA; details: 0.5x PBS (about 68 mM NaCl, 1.4 mM KCl), 5 mM MgCl2, 23 °C
[14] = tested on: ML10 (DNA, aptamer, none) TTCAAATCTGAGCAGCCTAGTTACTGACGGGTTTATAGTACTCACATTGAGTCTAGATTTGAA; details: 0.5x PBS (about 68 mM NaCl, 1.4 mM KCl), 5 mM MgCl2, 23 °C
[15] = tested on: ML11 (DNA, aptamer, none) TTCAAATCTGAGCAGCCTAGTTACTGACGGGTTTATAGTACTCGTATTGAGTCTAGATTTGAA; details: 0.5x PBS (about 68 mM NaCl, 1.4 mM KCl), 5 mM MgCl2, 23 °C
[16] = tested on: ML3-mut1 (DNA, aptamer, none) TTCAAATCTTATGTAAGTTCTATCGCATGGATGGGATTTTGGGTTACCTAGTCTAGATTTGAA; details: 0.5x PBS (about 68 mM NaCl, 1.4 mM KCl), 5 mM MgCl2, 0.005% Triton X-100, 23 °C
[17] = tested on: ML3-mut2 (DNA, aptamer, none) TTCAAATCTTATGTACGTACTATCGCATGGATGGGATTTTGGGTTACCTAGTCTAGATTTGAA; details: 0.5x PBS (about 68 mM NaCl, 1.4 mM KCl), 5 mM MgCl2, 0.005% Triton X-100, 23 °C
[18] = tested on: ML3-mut3 (DNA, aptamer, none) TTCAAATCTTATGTACGTTCTATCGCATGGATGTGATTTTGGGTTACCTAGTCTAGATTTGAA; details: 0.5x PBS (about 68 mM NaCl, 1.4 mM KCl), 5 mM MgCl2, 0.005% Triton X-100, 23 °C
[19] = tested on: ML3-mut4 (DNA, aptamer, none) TTCAAATCTTATGTACGTTCTATCGCATGGATGGGATTATGGGTTACCTAGTCTAGATTTGAA; details: 0.5x PBS (about 68 mM NaCl, 1.4 mM KCl), 5 mM MgCl2, 0.005% Triton X-100, 23 °C
[20] = tested on: ML3-mut5 (DNA, aptamer, none) TTCAAATCTTATGTACGTTCTATCGCATGGATGGGATTTTTGGTTACCTAGTCTAGATTTGAA; details: 0.5x PBS (about 68 mM NaCl, 1.4 mM KCl), 5 mM MgCl2, 0.005% Triton X-100, 23 °C, table says NA, 2000 titrant, 50 aptamer
[21] = tested on: ML3-mut6 (DNA, aptamer, none) TTCAAATCTTATGTACGTTCTATCGCATGGATGGGATTTTGGGTTACCAAGTCTAGATTTGAA; details: 0.5x PBS (about 68 mM NaCl, 1.4 mM KCl), 5 mM MgCl2, 0.005% Triton X-100, 23 °C, table says NA, 2000 titrant, 50 aptamer
[22] = tested on: ML4-mut1 (DNA, aptamer, none) TTCAAATCTTGGTACGTACTGCCTTTTCTTATTTTGCTTTGGGTTACCTAGTCTAGATTTGAA; details: 0.5x PBS (about 68 mM NaCl, 1.4 mM KCl), 5 mM MgCl2, 0.005% Triton X-100, 23 °C
[23] = tested on: ML4-mut2 (DNA, aptamer, none) TTCAAATCTTGGTACGTTCTGCATTTTCTTATTTTGCTTTGGGTTACCTAGTCTAGATTTGAA; details: 0.5x PBS (about 68 mM NaCl, 1.4 mM KCl), 5 mM MgCl2, 0.005% Triton X-100, 23 °C
[24] = tested on: ML4-mut3 (DNA, aptamer, none) TTCAAATCTTGGTACGTTCTGCCTATTCTTATTTTGCTTTGGGTTACCTAGTCTAGATTTGAA; details: 0.5x PBS (about 68 mM NaCl, 1.4 mM KCl), 5 mM MgCl2, 0.005% Triton X-100, 23 °C
[25] = tested on: ML4-mut4 (DNA, aptamer, none) TTCAAATCTTGGTACGTTCTGCCTTTACTTATTTTGCTTTGGGTTACCTAGTCTAGATTTGAA; details: 0.5x PBS (about 68 mM NaCl, 1.4 mM KCl), 5 mM MgCl2, 0.005% Triton X-100, 23 °C
[26] = tested on: ML4-mut5 (DNA, aptamer, none) TTCAAATCTTGGTACGTTCTGCCTTTTCTTATATTGCTTTGGGTTACCTAGTCTAGATTTGAA; details: 0.5x PBS (about 68 mM NaCl, 1.4 mM KCl), 5 mM MgCl2, 0.005% Triton X-100, 23 °C
[27] = tested on: ML4-mut6 (DNA, aptamer, none) TTCAAATCTTGGTACGTTCTGCCTTTTCTTATTTAGCTTTGGGTTACCTAGTCTAGATTTGAA; details: 0.5x PBS (about 68 mM NaCl, 1.4 mM KCl), 5 mM MgCl2, 0.005% Triton X-100, 23 °C
[28] = tested on: ML4-mut7 (DNA, aptamer, none) TTCAAATCTTGGTACGTTCTGCCTTTTCTTATTTTGCTATGGGTTACCTAGTCTAGATTTGAA; details: 0.5x PBS (about 68 mM NaCl, 1.4 mM KCl), 5 mM MgCl2, 0.005% Triton X-100, 23 °C

SMILES: CNC(C)Cc1ccc(O)cc1 (stereo not shown)
KD ([1]; 0.5x PBS, 23 °C): 255 ± 8 µM

SMILES: CC(N)Cc1ccccc1 (stereo not shown)
KD [4]: 5.7 ± 0.2 µM | KD ([1]; 0.5x PBS, 23 °C): 117 ± 4 µM | KD [5]: 18.2 ± 0.5 µM | KD ([6]; double titration): 140 ± 3.9 µM

SMILES: CCCC(C(=O)c1ccc2c(c1)OCO2)N1CCCC1 (stereo not shown)
KD ([1]; 0.5x PBS, 23 °C): 344 ± 23 µM

SMILES: CNC(C)Cc1ccc2c(c1)OCO2 (stereo not shown)
KD ([1]; 0.5x PBS, 23 °C): 223 ± 8 µM

SMILES: CN[C@@H](C)[C@@H](O)c1ccccc1
KD ([1]; 0.5x PBS, 23 °C): 372 ± 24 µM

SMILES: COC(=O)C(c1ccccc1)C1CCCCN1 (stereo not shown)
KD ([1]; 0.5x PBS, 23 °C): 749 ± 10 µM

Next, values leading:

KD [2]: > 1000 µM | KD [3]: > 1000 µM | KD ([1]; 0.5x PBS, 23 °C): 450 ± 21 µM
SMILES: CN[C@H](C)Cc1ccccc1

KD [2]: 364 ± 28 µM | KD [3]: > 1000 µM | KD [4]: 2.5 ± 0.1 µM | KD [7]: 5.0 ± 0.1 µM | KD [8]: 18.0 ± 1.1 µM | KD [9]: 10.1 ± 0.7 µM | KD [10]: 12 µM | KD [11]: 3.3 µM | KD [12]: 1.5 ± 0.1 µM | KD ([1]; 0.5x PBS pH 7.4, 0.005% Triton X-100, 23 °C, 16.2 at 2 mM, 65.2 at 1 mM Mg2+): 2.5 ± 0.1 µM | KD [13]: 1.30 ± 0.03 µM | KD [14]: 1.9 ± 0.1 µM | KD [15]: 2.4 ± 0.1 µM | KD [5]: 5.7 ± 0.3 µM | KD [6]: 7.0 ± 0.4 µM | KD [16]: 408 ± 16 µM | KD [17]: 39.0 ± 1.8 µM | KD [18]: 1.4 ± 0.1 µM | KD [19]: 72.5 ± 3.1 µM | KD [20]: > 1000 µM | KD [21]: > 1000 µM | KD [22]: 67.1 ± 4.1 µM | KD [23]: 4.0 ± 0.1 µM | KD [24]: 3.2 ± 0.1 µM | KD [25]: 4.9 ± 0.2 µM | KD [26]: 3.3 ± 0.1 µM | KD [27]: 3.8 ± 0.1 µM | KD [28]: 64.3 ± 3.9 µM
SMILES: CN[C@@H](C)Cc1ccccc1
